Results: patent US20130142831A1, “COMPOUNDS FOR INFLAMMATION AND IMMUNE-RELATED USES” (Synta Pharmaceuticals Corp., priority 2004, published 2013)

System: IL-2 production
Assay: Inhibition of IL-2 production in PHA-activated Jurkat cells
Type: cell-based
Settings: Homo sapiens, PHA 2.5 μg/mL, 20 hours
Procedure: Jurkat cells were placed in a 96 well plate (0.5 million cells per well in 1% FBS medium) then test compounds of this invention were added at different concentrations. After 10 minutes, the cells were activated with PHA (final concentration 2.5 μg/mL) and incubated for 20 hours at 37° C. under CO2. The final volume was 200 μL. Following incubation, the cells were centrifuged and the supernatants collected and stored at −70° C. prior to assaying for IL-2 production. A commercial kit (IL-2 Eli-pair, Diaclone Research, Besancon, France) was used to detect production of IL-2, from which dose response curves were obtained. The IC50 value was calculated as the concentration at which. 50% of maximum IL-2 production after stimulation was inhibited versus a non-stimulation control.

IC50 (bins given in nM) | IC50 (bins given with μM limit) | Compound
100 to 500 nM |  | CCCC(=O)Nc1ccc(-n2c(C(F)(F)F)nc3cc(OC)ccc32)cc1 [Compound 82, N-[4-(2-trifluoromethyl-5-methoxy-benzoimidazol-1-yl)-phenyl]-butyramide]
100 to 500 nM |  | COc1ccc2c(c1)nc(C(F)(F)F)n2-c1ccc(NC(=O)c2cccc3ccccc23)cc1 [Compound 83, Naphthalene-1-carboxylic acid {N-[4-(2-trifluoromethyl-5-methoxy-benzoimidazol-1-yl)-phenyl]} amide]
100 to 500 nM |  | COc1ccc2c(c1)nc(C(F)(F)F)n2-c1ccc(NC(=O)C=C(C)C)cc1 [Compound 84, 3-Methyl-N-[4-(2-trifluoromethyl-5-methoxy-benzoimidazol-1-yl)-phenyl]-but-2-enoic acid amide]
100 to 500 nM |  | CCCc1ccc(C(=O)Nc2ccc(-n3c(C(F)(F)F)nc4cc(OC)ccc43)cc2)cc1 [Compound 85, 4-Propyl-N-[4-(2-trifluoromethyl-5-methoxy-benzoimidazol-1-yl)-phenyl]-benzamide]
100 to 500 nM |  | COc1ccc2c(c1)nc(C(F)(F)F)n2-c1ccc(NC(=O)c2cccs2)cc1 [Compound 86, Thiophene-2-carboxylic acid {N-[4-(2-trifluoromethyl-5-methoxy-benzoimidazol-1-yl)-phenyl]} amide]
100 to 500 nM |  | CCCCC(CC)C(=O)Nc1ccc(-n2c(C(F)(F)F)nc3cc(OC)ccc32)cc1 (stereo not shown) [Compound 87, 2-Ethyl-N-[4-(2-trifluoromethyl-5-methoxy-benzoimidazol-1-yl)-phenyl]-hexanoic acid amide]
100 to 500 nM |  | CCCCCCC(=O)Nc1ccc(-n2c(C(F)(F)F)nc3cc(OC)ccc32)cc1 [Compound 88, N-[4-(2-trifluoromethyl-5-methoxy-benzoimidazol-1-yl)-phenyl]-heptanoic acid amide]
100 to 500 nM |  | COc1cccc(C(=O)Nc2ccc(-n3c(C(F)(F)F)nc4cc(OC)ccc43)cc2)c1 [Compound 89, 3-Methoxy-N-[4-(2-trifluoromethyl-5-methoxy-benzoimidazol-1-yl)-phenyl]-benzamide]
100 to 500 nM |  | COc1ccc2c(c1)nc(C(F)(F)F)n2-c1ccc(NC(=O)C2CC2c2ccccc2)cc1 (stereo not shown) [Compound 90, 2-Phenyl-N-[4-(2-trifluoromethyl-5-methoxy-benzoimidazol-1-yl)-phenyl]-cyclopropanecarboxylic acid amide]
< 100 nM |  | COC(=O)c1ccc2c(c1)nc(C(F)(F)F)n2-c1ccc(NC(=O)c2cccc(F)c2F)cc1 [Compound 96, 2-Trifluoromethyl-1-[4-(2,3-difluoro-benzoylamimo)-phenyl]-1H-benzoimidazole-5-carboxylic acid methyl ester]
< 100 nM |  | COc1ccc2c(c1)nc(C(F)(F)F)n2-c1ccc(NC(=O)c2c(F)c(F)c(F)c(F)c2F)cc1 [Compound 97, 2,3,4,5,6-Pentafluoro-N-[4-(2-trifluoromethyl-5-methoxy-benzoimidazol-1-yl)-phenyl]-benzamide]
< 100 nM |  | COc1ccc2c(c1)nc(C(F)(F)F)n2-c1ccc(NC(=O)c2ccc(F)cc2F)cc1 [Compound 98, 2,4-Difluoro-N-[4-(2-trifluoromethyl-5-methoxy-benzoimidazol-1-yl)-phenyl]-benzamide]
< 100 nM |  | O=C(Nc1ccc(-n2c(C(F)(F)F)nc3cc(O)ccc32)cc1)c1cccc(F)c1F [Compound 99, 2,3-Difluoro-N-[4-(2-trifluoromethyl-5-hydroxy-benzoimidazol-1-yl)-phenyl]-benzamide]
< 100 nM |  | COc1ccc2c(c1)nc(C(F)(F)F)n2-c1ccc(NC(=O)c2cc(F)ccc2F)cc1 [Compound 100, 2,5-Difluoro-N-[4-(2-trifluoromethyl-5-methoxy-benzoimidazol-1-yl)-phenyl]-benzamide]
< 100 nM |  | COc1ccc2c(c1)nc(C(F)(F)F)n2-c1ccc(NC(=O)c2cccc(C#N)c2)cc1 [Compound 101, 3-Cyano-N-[4-(2-trifluoromethyl-5-methoxy-benzoimidazol-1-yl)-phenyl]-benzamide]
< 100 nM |  | COc1ccc2c(c1)nc(C(F)(F)F)n2-c1ccc(NC(=O)c2c(Cl)cccc2Cl)cc1 [Compound 102, 2,6-Dichloro-N-[4-(2-trifluoromethyl-5-methoxy-benzoimidazol-1-yl)-phenyl]-benzamide]
< 100 nM |  | COc1ccc2c(c1)nc(C(F)(F)F)n2-c1ccc(NC(=O)c2ccccc2Br)cc1 [Compound 104, 2-Bromo-N-[4-(2-trifluoromethyl-5-methoxy-benzoimidazol-1-yl)-phenyl]-benzamide]
< 100 nM |  | COc1ccc2c(c1)nc(C(F)(F)F)n2-c1ccc(NC(=O)C2CCCC2)cc1 [Compound 105, N-[4-(2-trifluoromethyl-5-methoxy-benzoimidazol-1-yl)-phenyl]-cyclopentanecarboxylic acid amide]
< 100 nM |  | COc1ccc2c(c1)nc(C(F)(F)F)n2-c1ccc(NC(=O)C2CCCCC2)cc1 [Compound 106, N-[4-(2-trifluoromethyl-5-methoxy-benzoimidazol-1-yl)-phenyl]-cyclohexanecarboxylic acid amide]

IC50 (bins given in nM) | IC50 (bins given with μM limit) | Compound
< 100 nM |  | COc1ccc2c(c1)nc(C(F)(F)F)n2-c1ccc(NC(=O)c2ccccc2[N+](=O)[O-])cc1 [Compound 107, 2-Nitro-N-[4-(2-trifluoromethyl-5-methoxy-benzoimidazol-1-yl)-phenyl]-benzamide]
< 100 nM |  | COc1ccc2c(c1)nc(C(F)(F)F)n2-c1ccc(NC(=O)c2ccc(Cl)cc2)cc1 [Compound 108, 4-Chloro-N-[4-(2-trifluoromethyl-5-methoxy-benzoimidazol-1-yl)-phenyl]-benzamide]
< 100 nM |  | COc1ccc2c(c1)nc(C(F)(F)F)n2-c1ccc(NC(=O)c2cccc(Cl)c2)cc1 [Compound 109, 3-Chloro-N-[4-(2-trifluoromethyl-5-methoxy-benzoimidazol-1-yl)-phenyl]-benzamide]
< 100 nM |  | COc1ccc2c(c1)nc(C(F)(F)F)n2-c1ccc(NC(=O)c2ccc(F)c(F)c2)cc1 [Compound 110, 3,4-Difluoro-N-[4-(2-trifluoromethyl-5-methoxy-benzoimidazol-1-yl)-phenyl]-benzamide]
< 100 nM |  | COc1ccc2c(c1)nc(C(F)(F)F)n2-c1ccc(NC(=O)c2ccccc2)cc1 [Compound 111, N-[4-(2-trifluoromethyl-5-methoxy-benzoimidazol-1-yl)-phenyl]-benzamide]
< 100 nM |  | CC(C)Oc1ccc2c(c1)nc(C(F)(F)F)n2-c1ccc(NC(=O)c2cccc(F)c2F)cc1 [Compound 112, 2,3-Difluoro-N-[4-(2-trifluoromethyl-5-isopropoxy-benzoimidazol-1-yl)-phenyl]-benzamide]
< 100 nM |  | NC(=O)c1ccc2c(c1)nc(C(F)(F)F)n2-c1ccc(NC(=O)c2cccc(F)c2F)cc1 [Compound 113, 2,3-Difluoro-N-[4-(2-trifluoromethyl-5-carbamoyl-benzoimidazol-1-yl)-phenyl]-benzamide]
< 100 nM |  | COc1ccc2c(c1)nc(C(F)(F)F)n2-c1ccc(NC(=O)c2ccncc2)cc1 [Compound 114, N-[4-(2-trifluoromethyl-5-methoxy-benzoimidazol-1-yl)-phenyl]-isonicotinamide]
< 100 nM |  | COc1ccc2c(c1)nc(C(F)(F)F)n2-c1ccc(NC(=O)c2ccccc2I)cc1 [Compound 115, 2-Iodo-N-[4-(2-trifluoromethyl-5-methoxy-benzoimidazol-1-yl)-phenyl]-benzamide]
< 100 nM |  | COc1ccc2c(c1)nc(C(F)(F)F)n2-c1ccc(NC(=O)CC(C)C)cc1 [Compound 116, 3-Methyl-N-[4-(2-trifluoromethyl-5-methoxy-benzoimidazol-1-yl)-phenyl]-butyramide]
< 100 nM |  | COc1ccc2c(c1)nc(C(F)(F)F)n2-c1ccc(NC(=O)c2cc(Cl)cc(Cl)c2)cc1 [Compound 117, 3,5-Dichloro-N-[4-(2-trifluoromethyl-5-methoxy-benzoimidazol-1-yl)-phenyl]-benzamide]
< 100 nM |  | COc1ccc2c(c1)nc(C(F)(F)F)n2-c1ccc(NC(=O)c2cccc(Br)c2)cc1 [Compound 118, 3-Bromo-N-[4-(2-trifluoromethyl-5-methoxy-benzoimidazol-1-yl)-phenyl]-benzamide]
< 100 nM |  | COc1ccc2c(c1)nc(C(F)(F)F)n2-c1ccc(NC(=O)c2ccc(Br)cc2)cc1 [Compound 119, 4-Bromo-N-[4-(2-trifluoromethyl-5-methoxy-benzoimidazol-1-yl)-phenyl]-benzamide]
 | > 1000 nM | COc1ccc2c(c1)nc(C(F)(F)F)n2-c1ccc(NC(=O)c2ccco2)cc1 [Compound 120, Furan-2-carboxylic acid {N-[4-(2-trifluoromethyl-5-methoxy-benzoimidazol-1-yl)-phenyl]}-amide]
 | > 1000 nM | COc1ccc2c(c1)nc(C(F)(F)F)n2-c1ccc(NC(=O)C2CCCN2C(=O)C(F)(F)F)cc1 (stereo not shown) [Compound 121, 1-(2,2,2-Trifluoroacetyl)-N-[4-(2-trifluoromethyl-5-methoxy-benzoimidazol-1-yl)-phenyl]-pyrrolidine-2-carboxylic acid amide]
 | > 1000 nM | C=CC(=O)Nc1ccc(-n2c(C(F)(F)F)nc3cc(OC)ccc32)cc1 [Compound 122, N-[4-(2-trifluoromethyl-5-methoxy-benzoimidazol-1-yl)-phenyl]-acrylamide]
 | > 1000 nM | COc1ccc2c(c1)nc(C(F)(F)F)n2-c1ccc(NC(=O)COCc2ccccc2)cc1 [Compound 123, 2-Benzyloxy-N-[4-(2-trifluoromethyl-5-methoxy-benzoimidazol-1-yl)-phenyl]-acetamide]
 | > 1000 nM | COc1ccc2c(c1)nc(C(F)(F)F)n2-c1ccc(NC(=O)CSc2ccccc2)cc1 [Compound 124, 2-Phenylsulfanyl-N-[4-(2-trifluoromethyl-5-methoxy-benzoimidazol-1-yl)-phenyl]-acetamide]
